From US8846951B2 (AbbVie Inc., priority 2009, dated 2014)
pEC50: −log10 of the molar value. Like-named read-outs stand apart in the source and are kept apart here.

Assays:
[1] = target: T1, 5HT2B receptors (Homo sapiens, UniProt P41595); experiment: Human 5-HT2B functional high throughput screening assay in CHO-K1 cells (calcium flux); assay type: cell-based; settings: for pEC50: CHO-K1 cells, calcium flux
T1 construct: expressed in transfected cells; host or cells: CHO-K1 cells
Procedure, shortened: (§1)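 Frozen CHO-K1 cells overexpressing the receptor were plated, serum-starved overnight, then loaded with Ca4 dye plus 2.5 mM probenecid for 60 min at room temperature. FLIPR fluorescence (ex 480/em 530 nm, 25 °C) after compound addition was normalized to serotonin; EC50 and Emax came from 4-parameter logistic fits.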

[2] = target: T2, 5HT2C receptors (Homo sapiens, UniProt P28335); experiment: Human 5-HT2C functional high throughput screening assay in CHO-K1 cells (calcium flux); assay type: cell-based; parameters: expressed in transfected cells; host or cells: CHO-K1 cells; settings: for Emax: CHO-K1, 5-HT2C, maximum functional response as percentage relative to the effect of serotonin; for pEC50: CHO-K1 cells, calcium flux
T2 sequence (P28335 33-458): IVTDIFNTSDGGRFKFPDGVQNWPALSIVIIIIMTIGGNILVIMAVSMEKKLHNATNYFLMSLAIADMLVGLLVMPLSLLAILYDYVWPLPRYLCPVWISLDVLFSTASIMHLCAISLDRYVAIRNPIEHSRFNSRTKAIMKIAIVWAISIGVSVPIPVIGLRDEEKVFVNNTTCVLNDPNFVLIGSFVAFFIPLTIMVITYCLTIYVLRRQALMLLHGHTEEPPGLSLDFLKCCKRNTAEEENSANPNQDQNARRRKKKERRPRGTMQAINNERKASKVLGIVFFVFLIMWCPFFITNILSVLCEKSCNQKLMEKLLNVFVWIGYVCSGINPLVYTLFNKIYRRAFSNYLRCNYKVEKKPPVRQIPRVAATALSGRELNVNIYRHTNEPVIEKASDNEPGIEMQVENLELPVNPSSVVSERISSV
Procedure, shortened: as §1

[3] = 5-HT2B agonist activity, read-out: EC50
[4] = 5-HT2B, maximum functional response as percentage relative to the effect of serotonin
[5] = 5-HT2C agonist activity, read-out: EC50

T1 sequence (P41595 whole entry): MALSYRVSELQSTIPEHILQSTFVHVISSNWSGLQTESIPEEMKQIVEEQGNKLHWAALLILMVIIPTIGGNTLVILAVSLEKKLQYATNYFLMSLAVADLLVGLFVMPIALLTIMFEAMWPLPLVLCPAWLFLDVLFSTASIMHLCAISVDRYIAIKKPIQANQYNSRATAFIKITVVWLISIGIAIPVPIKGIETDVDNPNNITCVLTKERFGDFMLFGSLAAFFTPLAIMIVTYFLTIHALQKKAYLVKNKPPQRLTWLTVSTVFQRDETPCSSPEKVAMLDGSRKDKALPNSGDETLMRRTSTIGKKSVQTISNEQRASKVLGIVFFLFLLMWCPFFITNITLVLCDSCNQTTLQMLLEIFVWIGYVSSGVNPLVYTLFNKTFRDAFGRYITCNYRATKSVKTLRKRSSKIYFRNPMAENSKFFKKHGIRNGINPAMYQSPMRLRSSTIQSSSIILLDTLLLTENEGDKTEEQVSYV

Compound	pEC50 [1, 3]	Emax [1, 4]	pEC50 [2, 5]	Emax ([2]; read-out: Emax)	Emax ([1]; CHO-K1, 5-HT2B, maximum functional response as percentage relative to the effect of serotonin, read-out: Emax)	Emax ([1]; CHO-K1)	pEC50 ([1]; EC50, 5-HT2B agonist activity)	Emax [2]	pEC50 ([2]; EC50, 5-HT2C agonist activity)
CN1C[C@@H]2CCOc3ccccc3[C@H]2C1 [Example 235, (3aR,10bS)-2-Methyl-2,3,3a,4,5,10b-hexahydro-1H-[1]benzoxepino[4,5-c]pyrrole]						45%	7.00	120%	7.40
O=C1NC[C@@H]2CNC[C@H]2c2ccc(OCCc3cccc(F)c3)cc21 (relative stereo) [Example 124, Trans-8-(3-fluorophenethoxy)-1,2,3,3a,4,5-hexahydrobenzo[e]pyrrolo[3,4-c]azepin-6(10bH)-one]	< 5.00	inactive	7.70	> 120%					
CN1C[C@H]2CNC(=O)c3cc(C=Cc4ccccc4)ccc3[C@@H]2C1 (relative stereo) [Example 85, Trans-2-methyl-8-styryl-1,2,3,3a,4,5-hexahydrobenzo[e]pyrrolo[3,4-c]azepin-6(10bH)-one]	< 5.00	inactive	6.92	100%					
O=C1NC[C@@H]2CN(Cc3ccccc3)C[C@H]2c2cccc(OC(F)(F)F)c21 (relative stereo) [Example 102, Trans-2-benzyl-7-(trifluoromethoxy)-1,2,3,3a,4,5-hexahydrobenzo[c]pyrrolo[3,4-e]azepin-6(10bH)-one]	< 5.00	inactive	7.00	> 120%					
Brc1cccc2c1OCC[C@H]1CNC[C@@H]21 (relative stereo) [Example 332, Cis-7-bromo-2,3,3a,4,5,10b-hexahydro-1H-[1]benzoxepino[4,5-c]pyrrole]						20%	7.52	90%	9.05
CN1C[C@H]2CCN(C)c3ccccc3[C@@H]2C1 (relative stereo) [Example 330, Trans-2,6-dimethyl-1,2,3,3a,4,5,6,10b-octahydropyrrolo[3,4-d][1]benzazepine]						30%	6.52	90%	7.15
COC(=O)c1ccc2c(c1)C(=O)NC[C@@H]1CN(C)C[C@@H]21 (relative stereo) [Example 88, Trans-methyl 2-methyl-6-oxo-1,2,3,3a,4,5,6,10b-octahydrobenzo[e]pyrrolo[3,4-c]azepine-8-carboxylate]	< 5.00	inactive	6.30	> 120%					
CN1C[C@H]2CNC(=O)c3cc(-c4ccc5ccccc5c4)ccc3[C@@H]2C1 (relative stereo) [Example 80, Trans-2-methyl-8-(naphthalen-2-yl)-1,2,3,3a,4,5-hexahydrobenzo[e]pyrrolo[3,4-c]azepin-6(10bH)-one]	< 5.00	inactive	7.66	> 120%					
O=C1C[C@@H]2CN(Cc3ccccc3)C[C@H]2c2ccccc2N1 (relative stereo) [Example 222, Trans-2-benzyl-1,2,3,3a,4,10b-hexahydrobenzo[b]pyrrolo[3,4-d]azepin-5(6H)-one]	< 5.00	inactive	6.40	> 120%					
CN1C[C@@H]2CNC(=O)c3cc(OCc4c(F)cccc4F)ccc3[C@H]2C1 [Example 209, (3aS,10bS)-8-(2,6-Difluorobenzyloxy)-2-methyl-1,2,3,3a,4,5-hexahydrobenzo[e]pyrrolo[3,4-c]azepin-6(10bH)-one]	< 5.00	inactive	9.00	> 120%					
CN1C[C@H]2CNC(=O)c3cc(-c4cccnc4)ccc3[C@@H]2C1 (relative stereo) [Example 143, Trans-2-methyl-8-(pyridin-3-yl)-1,2,3,3a,4,5-hexahydrobenzo[e]pyrrolo[3,4-c]azepin-6(10bH)-one]	< 5.00	inactive	6.52					> 120%	
CN1C[C@H]2CNC(=O)c3c(-c4ccccc4)cccc3[C@@H]2C1 (relative stereo) [Example 114, Trans-2-methyl-7-phenyl-1,2,3,3a,4,5-hexahydrobenzo[c]pyrrolo[3,4-e]azepin-6(10bH)-one]	< 5.00	inactive	5.30	80%					
CN1C[C@@H]2CNC(=O)c3cc(-c4ccccn4)ccc3[C@H]2C1 [Example 388, (3aS,10bS)-2-Methyl-8-(pyridin-2-yl)-2,3,3a,4,5,10b-hexahydropyrrolo[3,4-d][2]benzazepin-6(1H)-one]	< 5.00	inactive	6.52					90%	
c1ccc2c(c1)NCC[C@@H]1CNC[C@@H]21 (relative stereo) [Example 389, Trans-1,2,3,3a,4,5,6,10b-octahydropyrrolo[3,4-d][1]benzazepine]	6.40		6.05			70%		95%	

Now from value to compound, other results behind:

pEC50 [1, 3]	Emax [1, 4]	pEC50 [2, 5]	Emax ([2]; read-out: Emax)	Emax ([1]; CHO-K1, 5-HT2B, maximum functional response as percentage relative to the effect of serotonin, read-out: Emax)	Compound	Emax ([1]; CHO-K1)	pEC50 ([1]; EC50, 5-HT2B agonist activity)	Emax [2]	pEC50 ([2]; EC50, 5-HT2C agonist activity)
< 5.00	inactive	9.15	100%		CC(C)C(O)c1cccc(-c2ccc3c(c2)C(=O)NC[C@H]2CN(C)C[C@H]32)c1 (stereo partly drawn) [Example 304, (3aS,10bS)-8-[3-(1-Hydroxy-2-methylpropyl)phenyl]-2-methyl-2,3,3a,4,5,10b-hexahydropyrrolo[3,4-d][2]benzazepin-6(1H)-one]				
< 5.00	inactive	6.22	95%		CNC(=O)c1ccc(-c2cccc3c2OCC[C@H]2CNC[C@H]32)cc1 (relative stereo) [Example 371, 4-[Trans-2,3,3a,4,5,10b-hexahydro-1H-[1]benzoxepino[4,5-c]pyrrol-7-yl]-N-methylbenzamide]				
< 5.00	inactive	7.00	90%		O=C1NC[C@@H]2CN(Cc3ccccc3)C[C@H]2c2cc3ccccc3cc21 (relative stereo) [Example 256, Trans-2-benzyl-1,2,3,3a,4,5-hexahydronaphtho[2,3-c]pyrrolo[3,4-e]azepin-6(12bH)-one]				
< 5.00	inactive	7.52	90%		COc1ccc(-c2ccc3c(c2)C(=O)NC[C@@H]2CN(C)C[C@@H]32)cc1C (relative stereo) [Example 315, Trans-8-(4-methoxy-3-methylphenyl)-2-methyl-2,3,3a,4,5,10b-hexahydropyrrolo[3,4-d][2]benzazepin-6(1H)-one]				
< 5.00	inactive	6.70	95%		CN1C[C@H]2CNC(=O)c3cc(-c4ccc(F)cc4F)ccc3[C@@H]2C1 (relative stereo) [Example 331, Trans-8-(2,4-difluorophenyl)-2-methyl-2,3,3a,4,5,10b-hexahydropyrrolo[3,4-d][2]benzazepin-6(1H)-one]				
6.70		6.40	80%	90%	O=S(=O)(c1cccc(C(F)(F)F)c1)N1Cc2cccnc2[C@@H]2CNC[C@H]2C1 (relative stereo) [Example 345, Trans-6-{[3-(trifluoromethyl)phenyl]sulfonyl}-5,6,7,7a,8,9,10,10a-octahydropyrido[3,2-c]pyrrolo[3,4-e]azepine]				
< 5.00	inactive	8.10	> 120%		O=C1CCc2ccc(-c3ccc4c(c3)C(=O)NC[C@@H]3CNC[C@@H]43)cc21 (relative stereo) [Example 247, Trans-8-(3-oxo-2,3-dihydro-1H-inden-5-yl)-1,2,3,3a,4,5-hexahydrobenzo[c]pyrrolo[3,4-e]azepin-6(10bH)-one]				
< 5.00	inactive	5.52	30%		CN1C[C@H]2CNC(=O)c3cc(-c4ccccc4S(C)(=O)=O)ccc3[C@@H]2C1 (relative stereo) [Example 232, Trans-2-methyl-8-(2-(methylsulfonyl)phenyl)-1,2,3,3a,4,5-hexahydrobenzo[c]pyrrolo[3,4-e]azepin-6(10bH)-one]				
< 5.00	inactive	8.00	> 120%		CN1C[C@H]2CNC(=O)c3cc(-c4cccc(C#N)c4)ccc3[C@@H]2C1 (relative stereo) [Example 240, 3-(Trans-2-methyl-6-oxo-1,2,3,3a,4,5,6,10b-octahydrobenzo[c]pyrrolo[3,4-e]azepin-8-yl)benzonitrile]				
< 5.00	inactive	8.15	> 120%		CN1C[C@H]2CNC(=O)c3cc(-c4cccc(CCO)c4)ccc3[C@@H]2C1 (relative stereo) [Example 253, Trans-8-(3-(2-hydroxyethyl)phenyl)-2-methyl-1,2,3,3a,4,5-hexahydrobenzo[c]pyrrolo[3,4-e]azepin-6(10bH)-one]				
